Results: patent publication US11685732B2, “MYST family histone acetyltransferase inhibitors” (Epizyme, Inc., priority 2017, dated 2023)

Columns and labels:
[1] = target: KAT-6A (Homo sapiens (Human), UniProt Q92794); test: KAT-6A biochemical inhibition assay (SAMDI mass spectrometry)
Summary of the method: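 Enzyme (12.5 nM final) pre-incubated with serially diluted compounds (2% DMSO final) in 50 mM Tris pH 8.0 with Tween20, gelatin and 1 mM DTT. Reaction started with 1 μM peptide substrate and 1 μM acetyl-CoA, run 90 min at 25 °C, quenched with 0.5% formic acid, read by SAMDI-TOF mass spectrometry; IC50 derived.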

[2] = target: KAT-8 (Homo sapiens (Human), UniProt Q9H7Z6); test: KAT-8 biochemical inhibition assay (SAMDI mass spectrometry)
Summary of the method: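 Compounds in 2% DMSO pre-incubated with 12.5 nM enzyme in 50 mM Tris pH 8.0 with Tween20, gelatin and 1 mM DTT. Then 1 μM peptide and 5 μM acetyl-CoA were added, 90 min at 25 °C; formic acid stop and SAMDI-TOF mass spectrometry for IC50.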

[3] = target: KAT-7 (Homo sapiens (Human), UniProt O95251); test: KAT-7 biochemical inhibition assay (SAMDI mass spectrometry)
Summary of the method: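 KAT-7 (6 nM) was pre-incubated with serially diluted compound (2% DMSO) in Tris pH 8.0 with DTT. Reaction with 1 μM peptide and 2 μM acetyl-CoA ran 120 min at 25 °C and was stopped with 0.5% formic acid. Acetylation was read by SAMDI-TOF mass spectrometry to give IC50.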

[4] = target: KAT-5 (Homo sapiens (Human), UniProt Q92993); test: KAT-5 biochemical inhibition assay (SAMDI mass spectrometry)
Summary of the method: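 KAT-5 at 9 nM final was preincubated with serially diluted compound (2% DMSO) in 50 mM Tris pH 8.0 with 1 mM DTT. Reaction ran with 1 μM peptide substrate and 0.5 μM acetyl-CoA for 90 min at 25° C, was quenched with 0.5% formic acid, and was read by SAMDI-TOF mass spectrometry.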

Sequence of KAT-5 (Q92993 other isoform, or with tags, fused parts or gaps): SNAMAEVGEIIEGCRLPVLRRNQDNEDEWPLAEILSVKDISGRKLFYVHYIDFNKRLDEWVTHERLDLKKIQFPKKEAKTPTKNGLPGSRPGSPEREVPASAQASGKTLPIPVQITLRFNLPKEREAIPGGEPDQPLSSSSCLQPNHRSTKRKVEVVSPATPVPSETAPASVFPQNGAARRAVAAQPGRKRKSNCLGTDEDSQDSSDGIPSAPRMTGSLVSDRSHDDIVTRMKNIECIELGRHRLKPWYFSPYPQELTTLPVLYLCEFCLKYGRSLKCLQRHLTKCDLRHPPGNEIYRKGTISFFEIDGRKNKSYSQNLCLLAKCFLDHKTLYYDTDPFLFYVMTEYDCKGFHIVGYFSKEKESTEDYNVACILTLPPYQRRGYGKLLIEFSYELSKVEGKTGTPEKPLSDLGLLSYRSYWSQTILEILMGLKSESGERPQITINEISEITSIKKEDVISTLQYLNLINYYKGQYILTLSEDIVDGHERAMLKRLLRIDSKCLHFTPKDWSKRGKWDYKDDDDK
Sequence of KAT-7 (O95251 other isoform, or with tags, fused parts or gaps): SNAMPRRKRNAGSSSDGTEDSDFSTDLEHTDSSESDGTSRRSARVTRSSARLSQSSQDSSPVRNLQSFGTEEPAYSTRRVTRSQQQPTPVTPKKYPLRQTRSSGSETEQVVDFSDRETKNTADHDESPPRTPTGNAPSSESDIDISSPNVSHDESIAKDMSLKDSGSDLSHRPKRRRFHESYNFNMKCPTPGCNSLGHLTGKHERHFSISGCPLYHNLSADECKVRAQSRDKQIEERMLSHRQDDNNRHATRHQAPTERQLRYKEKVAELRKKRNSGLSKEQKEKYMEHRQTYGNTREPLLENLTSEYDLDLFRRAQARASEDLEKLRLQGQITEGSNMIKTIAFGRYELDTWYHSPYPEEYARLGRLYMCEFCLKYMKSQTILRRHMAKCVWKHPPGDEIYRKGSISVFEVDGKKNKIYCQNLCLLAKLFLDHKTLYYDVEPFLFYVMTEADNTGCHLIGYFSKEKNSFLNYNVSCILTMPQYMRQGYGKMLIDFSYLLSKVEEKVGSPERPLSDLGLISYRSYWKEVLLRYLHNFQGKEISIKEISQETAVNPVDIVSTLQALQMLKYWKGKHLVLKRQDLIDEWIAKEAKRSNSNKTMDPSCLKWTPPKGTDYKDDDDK
Sequence of KAT-6A (Q92794 other isoform, or with tags, fused parts or gaps): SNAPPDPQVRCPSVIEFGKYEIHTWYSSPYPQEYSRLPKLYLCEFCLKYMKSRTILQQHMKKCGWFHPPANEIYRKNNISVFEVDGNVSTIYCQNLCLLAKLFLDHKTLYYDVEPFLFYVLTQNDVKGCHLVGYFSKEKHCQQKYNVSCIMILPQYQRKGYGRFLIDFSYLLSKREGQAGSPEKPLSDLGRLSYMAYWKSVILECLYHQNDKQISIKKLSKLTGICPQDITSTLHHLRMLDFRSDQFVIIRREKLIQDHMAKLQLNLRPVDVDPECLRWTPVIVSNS
Sequence of KAT-8 (Q9H7Z6 other isoform, or with tags, fused parts or gaps): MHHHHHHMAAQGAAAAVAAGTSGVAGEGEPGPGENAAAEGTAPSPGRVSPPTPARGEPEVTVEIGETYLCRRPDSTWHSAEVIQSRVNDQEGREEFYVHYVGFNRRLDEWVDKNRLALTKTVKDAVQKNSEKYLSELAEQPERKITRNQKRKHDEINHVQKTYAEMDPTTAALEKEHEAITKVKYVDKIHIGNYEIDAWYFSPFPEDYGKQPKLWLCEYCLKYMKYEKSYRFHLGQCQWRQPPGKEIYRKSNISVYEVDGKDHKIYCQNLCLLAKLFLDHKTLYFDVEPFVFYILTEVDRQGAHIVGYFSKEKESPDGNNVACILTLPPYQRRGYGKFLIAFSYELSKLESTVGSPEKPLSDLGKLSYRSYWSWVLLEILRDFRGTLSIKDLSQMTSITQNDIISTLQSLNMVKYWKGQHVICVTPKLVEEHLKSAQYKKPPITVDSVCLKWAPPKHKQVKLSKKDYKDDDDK

Row | IC50 [1] [µM] | IC50 [2] [µM] | IC50 [3] [µM] | IC50 [4] [µM] | Structure (SMILES)
1 | < 10 | 10 to 50 | < 10 | < 10 | Cn1cnc(-c2cc(Cl)c(F)c(C(=O)NNS(=O)(=O)C[C@H]3CC[C@H](NC(=O)c4ccccn4)CC3)c2)c1 [Compound I-245]
2 | < 10 | 10 to 50 | < 10 | < 10 | Cn1cnc(-c2cc(Cl)c(F)c(C(=O)NNS(=O)(=O)CC3CCc4ccccc4C3)c2)c1 (stereo not shown) [Compound I-383]
3 | 10 to 50 | 10 to 50 | 10 to 50 | 10 to 50 | CC1CCNCC1CS(=O)(=O)NNC(=O)c1cc(-c2cn(C)cn2)cc(Cl)c1F (stereo not shown) [Compound I-307]
4 | < 10 | 10 to 50 | < 10 | < 10 | Cn1cnc(-c2cc(Cl)c(F)c(C(=O)NNS(=O)(=O)CC3CCCC(NC(=O)Cc4ccccc4)C3)c2)c1 (stereo not shown) [Compound I-231]
5 | < 10 | 10 to 50 | < 10 | 10 to 50 | CC(C)S(=O)(=O)N1CC(CS(=O)(=O)NNC(=O)c2cc(-c3cn(C)cn3)cc(Cl)c2F)C1 [Compound I-193]
6 | < 10 | 10 to 50 | < 10 | < 10 | COc1cccc(S(=O)(=O)NNC(=O)c2cc(-c3cn(C)cn3)cc(Cl)c2F)c1 [Compound I-322]
7 | 10 to 50 | 10 to 50 | < 10 | 10 to 50 | Cn1cnc(-c2cc(F)c(F)c(C(=O)NNS(=O)(=O)C3CCOCC3)c2)c1 [Compound I-149]
8 | 10 to 50 | 10 to 50 | 10 to 50 | 10 to 50 | Cc1nc(-c2cc(Cl)c(F)c(C(=O)NNS(=O)(=O)CC3CCOCC3)c2)cs1 [Compound I-70]
9 | < 10 | 10 to 50 | < 10 | < 10 | COc1ccc(CN(C)C(=O)N2CCCC(CS(=O)(=O)NNC(=O)c3cc(-c4cn(C)cn4)cc(Cl)c3F)C2)cc1 (stereo not shown) [Compound I-171]
10 | > 100 | > 100 | 10 to 50 | > 100 | Cn1cnc(-c2cc(Cl)c(F)c(C(=O)NNS(=O)(=O)C3CC3)c2)c1 [Compound I-19]
11 | < 10 | > 100 | < 10 | 10 to 50 | Cc1cnn(-c2cc(Cl)c(F)c(C(=O)NNS(=O)(=O)CC3CCOCC3)c2)c1 [Compound I-36]
12 | < 10 | 10 to 50 | < 10 | 10 to 50 | CN(C)C(=O)N1CC(CS(=O)(=O)NNC(=O)c2cc(-c3cn(C)cn3)cc(Cl)c2F)C1 [Compound I-167]
13 | > 100 | > 100 | < 10 | > 100 | Cn1cnc(-c2cc(Cl)c(F)c(C(=O)NNS(=O)(=O)C3COC3)c2)c1 [Compound I-42]
14 | 10 to 50 | 10 to 50 | < 10 | < 10 | CNC(=O)N1CC[C@H](CS(=O)(=O)NNC(=O)c2cc(-c3cn(C)cn3)cc(Cl)c2F)C1 [Compound I-210]
15 | < 10 | 10 to 50 | < 10 | 10 to 50 | Cn1cnc(-c2cc(Cl)c(F)c(C(=O)NNS(=O)(=O)CC3CN(S(=O)(=O)C4CCC4)C3)c2)c1 [Compound I-170]
16 | 10 to 50 | 10 to 50 | < 10 | < 10 | Cn1cnc(-c2cc(Cl)c(F)c(C(=O)NNS(=O)(=O)CC3CCN(C(=O)NCCO)C3)c2)c1 (stereo not shown) [Compound I-228]
17 | 10 to 50 | 10 to 50 | < 10 | < 10 | CC(C)C(=O)N[C@H]1CC[C@@H](CS(=O)(=O)NNC(=O)c2cc(-c3cn(C)cn3)cc(Cl)c2F)CC1 [Compound I-222]

Row | IC50 [1] [µM] | IC50 [2] [µM] | IC50 [3] [µM] | IC50 [4] [µM] | Structure (SMILES)
18 | 10 to 50 | 10 to 50 | < 10 | 10 to 50 | CNC1CCCC(CS(=O)(=O)NNC(=O)c2cc(-c3cn(C)cn3)cc(Cl)c2F)C1 (stereo not shown) [Compound I-280]
19 | > 100 | > 100 | 10 to 50 | 50 to 100 | CCCn1cc(-c2cc(C)c(F)c(C(=O)NNS(=O)(=O)C3CCCCC3)c2)cn1 [Compound I-151]
20 | > 100 | > 100 | > 100 | > 100 | CCn1cnc(C)c1-c1cc(Cl)c(F)c(C(=O)NNS(=O)(=O)CC2CCCCC2)c1 [Compound I-40]
21 | < 10 | 10 to 50 | < 10 | < 10 | CCNC(=O)N[C@H]1C[C@@H](CS(=O)(=O)NNC(=O)c2cc(-c3cn(C)cn3)cc(Cl)c2F)C1 [Compound I-107]
22 | 10 to 50 | 10 to 50 | < 10 | < 10 | COc1ccc(CN(C)C(=O)N2CC[C@H](CS(=O)(=O)NNC(=O)c3cc(-c4cn(C)cn4)cc(Cl)c3F)C2)cc1 [Compound I-162]
23 | < 10 | 10 to 50 | < 10 | < 10 | CCC(=O)N(C)C1CCCC(CS(=O)(=O)NNC(=O)c2cc(-c3cn(C)cn3)cc(Cl)c2F)C1 (stereo not shown) [Compound I-294]
24 | < 10 | 10 to 50 | < 10 | < 10 | Cn1cnc(-c2cc(Cl)c(F)c(C(=O)NNS(=O)(=O)CC3CCCN(C(=O)NCCO)C3)c2)c1 (stereo not shown) [Compound I-225]
25 | 10 to 50 | 10 to 50 | < 10 | 10 to 50 | Cn1cnc(-c2cc(Cl)c(F)c(C(=O)NNS(=O)(=O)c3cnn(CCO)c3)c2)c1 [Compound I-362]
26 | 10 to 50 | 10 to 50 | < 10 | < 10 | Cn1cnc(-c2cc(Cl)c(F)c(C(=O)NNS(=O)(=O)c3ccc(OCc4ccccc4)nc3)c2)c1 [Compound I-354]
27 | < 10 | 10 to 50 | < 10 | < 10 | Cn1cnc(-c2cc(Cl)c(F)c(C(=O)NNS(=O)(=O)C[C@H]3C[C@H](NC(=O)OC(C)(C)C)C3)c2)c1 [Compound I-124]
28 | 10 to 50 | 10 to 50 | < 10 | 10 to 50 | CN1CCC(CS(=O)(=O)NNC(=O)c2cc(-c3cn(C)cn3)cc(Cl)c2F)C1 (stereo not shown) [Compound I-79]
29 | 10 to 50 | 10 to 50 | < 10 | 10 to 50 | Cn1cnc(-c2cc(Cl)c(F)c(C(=O)NNS(=O)(=O)c3cn(C)nn3)c2)c1 [Compound I-69]
30 | 50 to 100 | > 100 | < 10 | 10 to 50 | Cn1cnc(-c2cc(Cl)c(F)c(C(=O)NNS(=O)(=O)C3CCOC3)c2)c1 (stereo not shown) [Compound I-27]
31 | > 100 | > 100 | > 100 | 10 to 50 | Cc1ncc(-c2cc(Cl)c(F)c(C(=O)NNS(=O)(=O)C3CCCCC3)c2)n1C [Compound I-59]
32 | < 10 | 10 to 50 | < 10 | < 10 | CCNC(=O)N[C@@H]1CCC[C@@H](CS(=O)(=O)NNC(=O)c2cc(-c3cn(C)cn3)cc(Cl)c2F)C1 [Compound I-355]
33 | < 10 | 10 to 50 | < 10 | < 10 | Cn1cnc(-c2cc(Cl)c(F)c(C(=O)NNS(=O)(=O)c3cccc(OCc4ccccc4)n3)c2)c1 [Compound I-375]
34 | < 10 | 10 to 50 | < 10 | 10 to 50 | Cn1cnc(-c2cc(Cl)c(F)c(C(=O)NNS(=O)(=O)c3cccnc3)c2)c1 [Compound I-301]
